# Test system: conscious fully-instrumented dogs with normal cardiac function
# Experiment: Acute β-AR (dobutamine) challenge after mavacamten in conscious instrumented dogs
# Format: in vivo, dog
# Method: In addition, the effects of MAVA (at 1.5 mg/kg PO, via gavage) on cardiac reserve were evaluated via acute β-AR challenges (dobutamime: 2, 5, and 10 ug/kg/min IV) in conscious fully-instrumented (LVPV group) dogs with normal cardiac function (n=8). These challenges were performed before/after dosing (+3-hour) in control- and MAVA-treated animals both under normal cardiac physiological conditions (n=4) and under (mild) concomitant cardio-depression induced via either selective β-AR blockade (+BB, metoprolol 0.5±0.1 mg/kg PO tid; n=4) or L-type Ca2+-channel blockade (+CCB, verapamil at 5±1 mg/kg PO tid; n=4); pharmacological blockades were established for 7 days prior to the MAVA treatment. Both peak and dose-responses were evaluated at steady state.
# Throughout these experiments, analog signals were digitally acquired (1000 Hz) and recorded continuously with a data acquisition/analysis system (IOX; EMKA Technologies). Heart rate (HR), end-systolic (ESP) and end-diastolic pressures (EDP), as well as the peak rates of pressure rise/decline (dP/dtmax and dP/dtmin), the contractility index (CI: dP/dt/P at dP/dtmax), and the time-constant of myocardial relaxation (tau½, time for 50% decay from dP/dtmin) were derived from the LV pressure signal. Meanwhile, the end-systolic (ESV) and end-diastolic volumes (EDV) were measured from the LV volume signal derived from the implanted myocardial crystals. LV volumes were derived assuming a Teichholz model, and stroke volume (SV=EDV−ESV), ejection fraction (EF=SV/EDV), as well as cardiac output (CO=SV·HR) were calculated; in a subset of animals, SV and CO values were verified from data derived from the implanted aortic flow proble. […] The slopes of the preload-recruitable stroke work (PRSW; stroke work vs. EDV) and the end-systolic pressure-volume relationships (ESPVR; end-systolic elastance, Ees) were derived by software using linear models (IOX; EMKA Technologies), and were used as load-independent inotropic indices. Ventricular load was estimated by the effective arterial elastance (Ea=ESP/SV). […]
compound,measurement,setting,value
"CC(C)n1c(=O)cc(N[C@@H](C)c2ccccc2)[nH]c1=O [mavacamten, (S)-3-Isopropyl-6-((1-phenylethyl)amino)pyrimidine-2, 4(1H,3H)-dione]",β-AR induced acceleration of tau,at any given dP/dtmax gain,enhanced the β-AR induced acceleration of tau
same,dobutamine-triggered stroke-volume/cardiac output recruitments,before (control) vs under acute mavacamten treatment,comparable stroke-volume/cardiac output recruitments
same,β-AR elevations in dP/dtmax and CI,dobutamine challenge,blunted β-AR elevations in dP/dtmax and CI
